Where a name gives a salt, the structure may show the parent alone. Read-outs that look alike come from different tables or passages of the source.

Series [1] relates to differentiated C2C12 cells. Nature of the series: Cellular uptake of statins by differentiated C2C12 cells in medium of altered pH. It counts as cell-based, mouse. Particulars: for intracellular levels of pravastatin: 1 μmol/L, LC MS/MS. On the procedure: (§1) Samples temperature was kept at 4°C, and column temperature was set at 40°C.
Series [2] concerns undifferentiated C2C12 cells. Nature of the series: MTT cytotoxicity in undifferentiated C2C12 cells in medium of different pH. Particulars: Mus musculus, 72 hours, read-out: IC50 values of statins. The format is cell-based. On the procedure:
(§2) The effect of medium pH alteration on the cytotoxicity of statins was evaluated by MTT and LDH cytotoxicity assays. Both undifferentiated and differentiated C2C12 cells were used in these studies. […] Before starting treatment, the medium was replaced by a fresh one with modified pH (6.8, 7.4, and 7.8). […] Positive control samples with 100% cell death were obtained by treating cells with 1% Triton X-100. Produced formazan crystals were dissolved in DMSO, and the absorbance was measured at 570 nm using EnVision Multilabel Plate Reader (PerkinElmer). Results were expressed as percentage of the control, and IC50 was calculated using prism 6 (GraphPad Software Inc).

For series [3], the system named is differentiated C2C12 cells. Nature of the series: MTT cytotoxicity in differentiated C2C12 cells in medium of different pH. It counts as cell-based. Particulars: Mus musculus, acidic medium (pH 6.8), 72 hours, read-out: IC50 values of statins. On the procedure: as §2
In series [4] the test system is undifferentiated C2C12 cells. Nature of the series: Cellular uptake of statins by undifferentiated C2C12 cells in medium of altered pH. The format is cell-based, mouse. Particulars: 1 μmol/L, LC MS/MS. As to the method: as §1
The nature of series [5]: Hydrolysis of the lactone form of statins in phosphate buffer saline of modified pH. It counts as physicochemical. Particulars: phosphate buffer saline (PBS), 37°C. As to the method: (§3) The pH of DMEM culture medium was adjusted to the target values (6.8–7.8) by adding an appropriate volume of either 1.0 N HCl or NaOH to a medium containing 20 mmol/L 4-2-hydroxyethyl-1-piperazineethanesulfonic acid (HEPES) buffer. The pH was measured at incubation temperature (37°C) by Mettler Toledo T50 pH titrator. […] After equilibration, minor adjustment in pH was occasionally required to reach the desired final pH.[35] Maintaining medium under constant CO2 environment of 5% stabilizes the pH through CO2-HCO3^− equilibrium.[36] The pH of phosphate buffer saline (PBS) was adjusted to the target values (6.8–7.8) in the same way without the need for equilibration.
(§4) The interconversion of the lactone and hydroxy acid forms of simvastatin and pravastatin was investigated by incubating tested compounds with human plasma, PBS, and DMEM culture medium of defined pH values at 37°C for a predetermined period of time. […] Human plasma and PBS samples were incubated in C25 classic incubator shaker (New Brunswick Scientific). For DMEM samples, CO2 supply was maintained at 5% throughout experiment in a tissue culture incubator. The pH of different matrices was adjusted to simulate physiological pH, acidosis, and alkalosis as described previously. After incubation, the interconversion reaction was stopped at predetermined time points by adding 50 μL of ice-cold ammonium acetate buffer (100 mmol/L, pH 4.5) to 100 μL of tested samples.[14] Six replicates were tested at each pH level, and the concentrations of parent and corresponding forms were measured by fully validated HPLC analytical methods.
(§5) Fully validated HPLC-UV methods were used to determine the concentrations of the lactone and the corresponding hydroxy acid forms of simvastatin and pravastatin after interconversion studies in human plasma, PBS, and DMEM culture medium of different pH. Samples for HPLC analysis were prepared by protein precipitation followed by liquid-liquid extraction. A 100 μL of human plasma or DMEM samples were pipetted into 1.5 mL Eppendorf tubes, and 50 μL of ammonium acetate buffer (100 mmol/L, pH 4.5) along with 10 μL of internal standard solution (4,4-dichlorodiphenyltrichloroethane [DDT] or griseofulvin 100 μg/mL for simvastatin and pravastatin containing samples, respectively) was added, and samples were vortex mixed for 30 seconds. Proteins were precipitated by the addition of 300 μL of chilled ACN, and samples were vortex mixed for 1 minute and then centrifuged at 900g for 10 minutes at 4°C. After centrifugation, the ACN layer was transferred into new glass test tubes, and 3 mL of methyl tert-butyl ether were added to each sample, vortex mixed for 10 minutes, and centrifuged at 1,615g for 10 minutes at 4°C. Finally, the upper organic layers were separated using glass Pasteur pipette, transferred into new glass tubes, and the contents of the tubes were evaporated to dryness using Techne Sample Concentrator (Bibby Scientific Ltd, UK). The dry residues were reconstituted with 100 μL of the mobile phase, vortex mixed, and placed into appropriate HPLC vials. Samples from PBS were extracted in the same way with one exception that the protein precipitation step was skipped.
(§6) HPLC analysis was performed using Waters Alliance 2965 separation module equipped with Waters 996 Photodiode Array Detector and integrated autosampler. System control and data processing were performed using Empower software. Chromatographic separation was achieved by ACE Excel Super C18 column (100 × 3 mm, 3 μm) under isocratic conditions with mobile phase consisting of ACN: 5 mmol/L ammonium acetate buffer, pH 4.5 (73:27 and 55:45, v/v for simvastatin and pravastatin samples, respectively). The flow rate was set at 0.4 mL/min for simvastatin and 0.3 mL/min for pravastatin samples. Samples temperature was kept at 4°C, and column temperature was set at 40°C. Chromatographic separation was monitored by photodiode array detector at 238 nm with an injection volume of 20 μL.

Series [6] in a line: Interconversion / hydrolysis of the lactone form of statins in human plasma of modified pH. It counts as in vitro ADME. Particulars: for proportion of lactone converted to the hydroxy acid form: 50 μmol/L, 24 hours at 37°C; for half-life at 50 μmol/L: 37°C. On the procedure:
as §4, §5
as §6, with “40°C.” for “40°C. Chromatographic separation was monitored by photodiode array detector at 238 nm with an injection volume of 20 μL.”

A short description of series [7]: Hydrolysis of the lactone form of statins in DMEM culture medium of modified pH. The format is physicochemical. Particulars: 37°C. As to the method: as §3, §4
Fully validated HPLC-UV methods were used to determine the concentrations of the lactone and the corresponding hydroxy acid forms of simvastatin and pravastatin after interconversion studies in human plasma, PBS, and DMEM culture medium of different pH. Samples for HPLC analysis were prepared by protein precipitation followed by liquid-liquid extraction. A 100 μL of human plasma or DMEM samples were pipetted into 1.5 mL Eppendorf tubes, and 50 μL of ammonium acetate buffer (100 mmol/L, pH 4.5) along with 10 μL of internal standard solution (4,4-dichlorodiphenyltrichloroethane [DDT] or griseofulvin 100 μg/mL for simvastatin and pravastatin containing samples, respectively) was added, and samples were vortex mixed for 30 seconds. Proteins were precipitated by the addition of 300 μL of chilled ACN, and samples were vortex mixed for 1 minute and then centrifuged at 900g for 10 minutes at 4°C. […]
HPLC analysis was performed using Waters Alliance 2965 separation module equipped with Waters 996 Photodiode Array Detector and integrated autosampler. […] Chromatographic separation was monitored by photodiode array detector at 238 nm with an injection volume of 20 μL.

Usually IC50 stands for the point on the concentration scale where inhibition reaches its midpoint. For `CCC(C)(C)C(=O)O[C@H]1C[C@@H](C)C=C2C=C[C@H](C)[C@H](CC[C@@H](O)C[C@@H](O)CC(=O)O)[C@H]21` [SVA, simvastatin hydroxy acid ammonium salt], the “increase in uptake at acidic extracellular pH” value in series [1] (1 μmol/L SVA) is listed as “more than 2 folds”. Besides, the “reduction in uptake under alkaline pH” value in series [1] (1 μmol/L SVA) is listed as “approximately 50%”. Further, the 50% inhibitory concentration (IC50) in series [2] (acidic medium (pH 6.8)) was 2.22 ± 0.04 µM; in series [2] (alkaline medium (pH 7.8)), 16.9 ± 0.48 µM; in series [2] (neutral medium (pH 7.4)), 4.35 ± 0.09 µM; in series [3] it was 65.4 ± 2.69 µM.

`CC[C@H](C)C(=O)O[C@H]1C[C@H](O)C=C2C=C[C@H](C)[C@H](CC[C@@H](O)C[C@@H](O)CC(=O)O)[C@H]21` [PVA, pravastatin hydroxy acid sodium]: the “intracellular levels of pravastatin” value in series [4] and in series [1] was “below the limit of quantification” each time.

As usually defined, the half-life is the time in which the quantity being followed falls by half. Read a high half-life as slow loss. In the case of `CC[C@H](C)C(=O)O[C@H]1C[C@H](O)C=C2C=C[C@H](C)[C@H](CC[C@@H]3C[C@@H](O)CC(=O)O3)[C@H]21` [PVL, pravastatin lactone], the half-life at 50 μmol/L was 21.2 ± 1.75 h in series [5] (pH 6.8, 50 μmol/L); 13 ± 1.38 h in series [5] (pH 7.0, 50 μmol/L); 9.36 ± 1.57 h in series [5] (pH 7.2, 50 μmol/L); 6.89 ± 0.41 h in series [5] (pH 7.4, 50 μmol/L); 5.59 ± 0.49 h in series [5] (pH 7.6, 50 μmol/L); 4.98 ± 0.44 h in series [5] (pH 7.8, 50 μmol/L). Moreover, the half-life at 50 μmol/L in series [6] (pH 6.8, 50 μmol/L) is 8.84 ± 0.31 h; in series [6] (pH 7.0, 50 μmol/L), 7.39 ± 0.22 h; in series [6] (pH 7.2, 50 μmol/L), 6.61 ± 0.95 h; in series [6] (pH 7.4, 50 μmol/L) it was 6.85 ± 0.54 h; in series [7] (pH 6.8, 50 μmol/L), 17.3 ± 4 h; in series [7] (pH 7.2, 50 μmol/L) it was 11.9 ± 2.71 h. The half-life at 50 μmol/L is 9.72 ± 1.42 h in series [7] (pH 7.4, 50 μmol/L) and 10.7 ± 0.81 h in series [7] (pH 7.8, 50 μmol/L). Also, the entries for the “proportion of lactone converted to the hydroxy acid form” value in series [6] (alkaline pH) and in series [6] (physiological pH) were ~99% and ~98%, respectively. Also, the “intracellular levels of pravastatin” value in series [4] and in series [1] was “below the limit of quantification” each time.

The values above are taken from paper PMC4967449, “The role of acid-base imbalance in statin-induced myotoxicity” (Translational Research, 2016).
